Results: patent US10351594B2, “Process for preparing compounds having triple activities of thrombolysis, antithrombosis, and radical scavenging” (Shanghai Lumosa Therapeutics Co., Ltd., priority 2013, dated 2019)
Entries after “also recorded” stand apart in the source; their conditions may differ. Marks after values point to notes of the source that are not given here.

What was measured:
[1] = tested on: thrombus (rat arteriovenous bypass thrombolysis model); experiment: Thrombolytic activity via intravenous administration, rat arteriovenous bypass thrombolysis model; type: in vivo, male SD rats; settings: rat; for Weight reduction in thrombus: intravenous injection, 5Aa-p 0.1 nmol/kg, 1 hour, n = 10; for Thrombolytic activity, result in words: intravenous, 0.1 nmol/kg (5Ak also 0.01 and 0.001 nmol/kg), urokinase 20000 U/kg
Experimental: 200-220 g male SD rats were anesthetized with 20% urethane solution (6 mL/kg, ip). Anesthetized rats were fixed in a supine position, and the right common carotid artery was separated, clamped at the proximal end with an arterial clip, and penetrated with a suture at the proximal and distal ends, respectively. The suture at the distal end is clipped tightly by a hemostatic clamp at the skin/fur. Cannulation was performed at the distal end, the arterial clamp was loosened, and about 1 ml arterial blood was discharged into a 1 mL EP vial. 0.1 mL rat arterial blood was injected into a vertically fixed glass tube (15 mm in length, with an inner diameter of 2.5 mm and an outer diameter of 5.0 mm, sealed with a rubber stopper at the bottom), into which was immediately inserted a thrombus immobilization screw made of stainless steel. […] 40 min after the blood coagulated, the rubber stopper at the bottom of the glass tube was removed, the stem of the thrombus immobilization screw was fixed by forceps, and the thrombus-wrapped thrombus immobilization screw was carefully taken out from the glass tube and precisely weighted.
A bypass cannula was composed of 3 segments. The middle segment was a polyethylene tube having a length of 60 mm and an inner diameter of 3.5 mm. The segments on both ends were similar polyethylene tubes having a length of 100 mm, an inner diameter of 1 mm and an outer diameter of 2 mm, one end of which was pulled to form a tip, with an outer diameter of 1.0 mm (used in inserting into the rat carotid artery or vein), the other end of which was sheathed by a polyethylene tube having a length of 7 mm and an outer diameter of 3.5 mm (thickened, used in inserting into the polyethylene tube of the middle segment). The inner wall of the 3-segment cannula was entirely silylated. The thrombus-wrapped thrombus immobilization screw was placed into the polyethylene tube of the middle segment, and both ends of the tube sheath the thickened ends of two polyethylene tubes. The cannula was filled with a heparin solution in normal saline (50 IU/kg) through the tip end by using an injector and was ready for use.
The left external jugular vein of the rat was separated and penetrated with a suture at the proximal and distal ends respectively, and the distal end was ligated. An incision was carefully made on the exposed left external jugular vein, and the tip of the bypass cannula prepared as described above was inserted into the proximal end of the incision in the left external jugular vein, away from the stem of the thrombus immobilization screw in the middle segment of the bypass cannula (which accommodated the accurately weighed thrombus immobilization screw). A precise amount of heparin in saline (50 IU/kg) was injected through the tip at the other end by using an injector. At this moment, without removing the injector from the polyethylene tube, the tube between the injector and the polyethylene tube was clamped with a hemostatic clamp. The blood flow was stopped by clamping the proximal end of the right common carotid artery with an arterial clip, and an incision was cut carefully across the common carotid artery near the clip. The injector was pulled out of the polyethylene tube through the tip, and the tip of the polyethylene tube was then inserted into the proximal end of the artery incision. Both ends of the bypass cannula were fixed to the artery or vein with #4 sutures.
A scalp needle was used to pass saline solution, a urokinase in saline solution or varied concentrations of the compounds in saline solution through the middle section of the bypass cannula (which accommodated the accurately weighed thrombus immobilization screw) to a position at the proximal vein and away from the thrombus immobilization screw. The artery clip was then removed to allow blood to flow from the artery to the vein through the bypass cannula. A rat arteriovenous bypass thrombolysis model was thus established. […]

[2] = NO radical scavenging activity (MGD/SNAP signal peak height); type: biochemical; settings: n = 6
Experimental: 7.325 mg MGD (N-methyl-glucamine dithiocarbamate, Sigma) was dissolved in 1 mL of pure water to obtain 25 mM MGD solution. […] FeSO4.7H2O was dissolved in 1 mL of pure water to obtain 12.5 mM solution. […] SNAP (S-Nitroso-acetyl penicillamine) was dissolved in 1 mL of pure water to obtain 110 μM green mother liquid, which was diluted 100 folds to obtain 1 μM SNAP solution.
The first peak height of NO signal of 5 μL MGD solution+5 μL FeSO4.7H2O solution+5 μL SNAP solution+5 μL water was measured and repeated for 6 times. This peak height defined as the known peak height of NO signal. The first peak height of NO signal of 5 μL MGD solution+5 μL FeSO4.7H2O solution+5 μL SNAP solution+5 μL solution of one of the compounds 5Aa-p was measured and repeated for 6 times. This peak height defined as the residual peak height of the NO signal scavenged by one of the compounds 5Aa-p. Scavenging ratio=(known peak height of NO signal−residual peak height of NO signal of compounds 5Aa-p)/known peak height of NO signal

| Molecule | EC50 [2] [µM] | Weight reduction in thrombus [1] | Thrombolytic activity, result in words [1] |
| --- | --- | --- | --- |
| 3S-6,7-dihydroxy-1,1-dimethyl-1,2,3,4-tetrahydro-isoquinoline-3-acyl-Lys(Pro-Ala-Ala) [Compound 5Aa] | 599 ± 38 | 19.35 ± 2.76^b mg | comparable to that of urokinase; also recorded: higher thrombolytic activity |
| 3S-6,7-dihydroxy-1,1-dimethyl-1,2,3,4-tetrahydro-isoquinoline-3-acyl-Lys(Pro-Ala-Gly) [Compound 5Ag] | 609 ± 95 | 18.98 ± 2.14^b mg | comparable to that of urokinase; also recorded: higher thrombolytic activity |
| 3S-6,7-dihydroxy-1,1-dimethyl-1,2,3,4-tetrahydro-isoquinoline-3-acyl-Lys(Pro-Ala-Val) [Compound 5Ab] | 532 ± 73 | 17.12 ± 1.64^a mg | – |
| C[C@H](NC(=O)[C@@H]1CCCN1)C(=O)N[C@@H](Cc1ccc(O)cc1)C(=O)NCCCC[C@H](NC(=O)[C@@H]1Cc2cc(O)c(O)cc2C(C)(C)N1)C(=O)O [Compound 5Ad, 3S-6,7-dihydroxy-1,1-dimethyl-1,2,3,4-tetrahydro-isoquinoline-3-acyl-Lys(Pro-Ala-Tyr)] | 453 ± 41 | 18.11 ± 2.48^b mg | higher thrombolytic activity |
| C[C@H](NC(=O)[C@@H]1CCCN1)C(=O)N[C@@H](CO)C(=O)NCCCC[C@H](NC(=O)[C@@H]1Cc2cc(O)c(O)cc2C(C)(C)N1)C(=O)O [Compound 5Ah, 3S-6,7-dihydroxy-1,1-dimethyl-1,2,3,4-tetrahydro-isoquinoline-3-acyl-Lys(Pro-Ala-Ser)] | 523 ± 85 | 17.10 ± 1.79^a mg | – |
| CC[C@H](C)[C@H](NC(=O)[C@H](C)NC(=O)[C@@H]1CCCN1)C(=O)NCCCC[C@H](NC(=O)[C@@H]1Cc2cc(O)c(O)cc2C(C)(C)N1)C(=O)O [Compound 5Ai, 3S-6,7-dihydroxy-1,1-dimethyl-1,2,3,4-tetrahydro-isoquinoline-3-acyl-Lys(Pro-Ala-Ile)] | 527 ± 90 | 16.00 ± 2.03^a mg | – |
| C[C@H](NC(=O)[C@@H]1CCCN1)C(=O)N[C@H](C(=O)NCCCC[C@H](NC(=O)[C@@H]1Cc2cc(O)c(O)cc2C(C)(C)N1)C(=O)O)[C@@H](C)O [Compound 5Aj, 3S-6,7-dihydroxy-1,1-dimethyl-1,2,3,4-tetrahydro-isoquinoline-3-acyl-Lys(Pro-Ala-Thr)] | 510 ± 75 | 15.23 ± 2.45^a mg | – |
| C[C@H](NC(=O)[C@@H]1CCCN1)C(=O)N[C@@H](CCC(N)=O)C(=O)NCCCC[C@H](NC(=O)[C@@H]1Cc2cc(O)c(O)cc2C(C)(C)N1)C(=O)O [Compound 5Am, 3S-6,7-dihydroxy-1,1-dimethyl-1,2,3,4-tetrahydro-isoquinoline-3-acyl-Lys(Pro-Ala-Gln)] | 647 ± 88 | 16.65 ± 2.52^a mg | – |
| C[C@H](NC(=O)[C@@H]1CCCN1)C(=O)N[C@@H](CC(N)=O)C(=O)NCCCC[C@H](NC(=O)[C@@H]1Cc2cc(O)c(O)cc2C(C)(C)N1)C(=O)O [Compound 5An, 3S-6,7-dihydroxy-1,1-dimethyl-1,2,3,4-tetrahydro-isoquinoline-3-acyl-Lys(Pro-Ala-Asn)] | 659 ± 89 | 16.44 ± 2.32^a mg | – |
| C[C@H](NC(=O)[C@@H]1CCCN1)C(=O)N[C@@H](CCC(=O)O)C(=O)NCCCC[C@H](NC(=O)[C@@H]1Cc2cc(O)c(O)cc2C(C)(C)N1)C(=O)O [Compound 5Ap, 3S-6,7-dihydroxy-1,1-dimethyl-1,2,3,4-tetrahydro-isoquinoline-3-acyl-Lys(Pro-Ala-Glu)] | 477 ± 91 | 16.03 ± 2.14^a mg | – |

Continued, in another order:

| EC50 [2] [µM] | Molecule | Weight reduction in thrombus [1] | Thrombolytic activity, result in words [1] |
| --- | --- | --- | --- |
| 463 ± 92 | C[C@H](NC(=O)[C@@H]1CCCN1)C(=O)N[C@@H](Cc1c[nH]c2ccccc12)C(=O)NCCCC[C@H](NC(=O)[C@@H]1Cc2cc(O)c(O)cc2C(C)(C)N1)C(=O)O [Compound 5Ac, 3S-6,7-dihydroxy-1,1-dimethyl-1,2,3,4-tetrahydro-isoquinoline-3-acyl-Lys(Pro-Ala-Trp)] | 16.23 ± 2.81^a mg | – |
| 617 ± 88 | C[C@H](NC(=O)[C@@H]1CCCN1)C(=O)N1CCC[C@H]1C(=O)NCCCC[C@H](NC(=O)[C@@H]1Cc2cc(O)c(O)cc2C(C)(C)N1)C(=O)O [Compound 5Ae, 3S-6,7-dihydroxy-1,1-dimethyl-1,2,3,4-tetrahydro-isoquinoline-3-acyl-Lys(Pro-Ala-Pro)] | 13.63 ± 1.92^a mg | – |
| 568 ± 95 | C[C@H](NC(=O)[C@@H]1CCCN1)C(=O)N[C@@H](Cc1ccccc1)C(=O)NCCCC[C@H](NC(=O)[C@@H]1Cc2cc(O)c(O)cc2C(C)(C)N1)C(=O)O [Compound 5Af, 3S-6,7-dihydroxy-1,1-dimethyl-1,2,3,4-tetrahydro-isoquinoline-3-acyl-Lys(Pro-Ala-Phe)] | 17.92 ± 1.69^b mg | comparable to that of urokinase; also recorded: higher thrombolytic activity |
| 503 ± 41 | CC(C)C[C@H](NC(=O)[C@H](C)NC(=O)[C@@H]1CCCN1)C(=O)NCCCC[C@H](NC(=O)[C@@H]1Cc2cc(O)c(O)cc2C(C)(C)N1)C(=O)O [Compound 5Al, 3S-6,7-dihydroxy-1,1-dimethyl-1,2,3,4-tetrahydro-isoquinoline-3-acyl-Lys(Pro-Ala-Leu)] | 14.65 ± 2.86^a mg | – |
| 473 ± 99 | C[C@H](NC(=O)[C@@H]1CCCN1)C(=O)N[C@@H](CC(=O)O)C(=O)NCCCC[C@H](NC(=O)[C@@H]1Cc2cc(O)c(O)cc2C(C)(C)N1)C(=O)O [Compound 5Ao, 3S-6,7-dihydroxy-1,1-dimethyl-1,2,3,4-tetrahydro-isoquinoline-3-acyl-Lys(Pro-Ala-Asp)] | 15.86 ± 2.21^a mg | comparable to that of urokinase |
